Test results as given in ChEMBL document CHEMBL4017444, “Development of N-hydroxycinnamamide-based HDAC inhibitors with improved HDAC inhibitory activity and in vitro antitumor activity” (Bioorg Med Chem, 2017).

Key:
[1] = Inhibition of HDAC in human HeLa cell nuclear extracts using (Boc-Lys(Ac)-AMC as substrate preincubated for 5 mins followed by substrate addition measured after 30 mins by fluorescence assay; type: cell-based
MOLT-4 = experiment: Antiproliferative activity against human MOLT4 cells after 48 hrs by MTT assay; type: functional, cell-based; conditions: MOLT-4, 48 h
HEL = experiment: Antiproliferative activity against human HEL cells after 48 hrs by MTT assay; type: functional, cell-based
K562 = experiment: Antiproliferative activity against human K562 cells after 48 hrs by MTT assay; type: functional, cell-based; conditions: K562, 48 h
HeLa = experiment: Antiproliferative activity against human HeLa cells after 48 hrs by MTT assay; type: functional, cell-based
PC-3 = experiment: Antiproliferative activity against human PC3 cells after 48 hrs by MTT assay; type: functional, cell-based; conditions: PC-3, 48 h
Histone deacetylase 1 = Histone deacetylase 1 (Homo sapiens, UniProt Q13547); experiment: Inhibition of HDAC1 (unknown origin) using Ac-Leu-GlyLys(Ac)-AMC as substrate preincubated for 5 mins followed by substrate addition measured after 30 mins by fluorescence assay
Histone deacetylase 2 = Histone deacetylase 2 (Homo sapiens, UniProt Q92769); experiment: Inhibition of HDAC2 (unknown origin) using Ac-Leu-GlyLys(Ac)-AMC as substrate preincubated for 5 mins followed by substrate addition measured after 30 mins by fluorescence assay
Histone deacetylase 3 = Histone deacetylase 3 (Homo sapiens, UniProt O15379); experiment: Inhibition of HDAC3 (unknown origin) using Ac-Leu-GlyLys(Ac)-AMC as substrate preincubated for 5 mins followed by substrate addition measured after 30 mins by fluorescence assay
[2] = biological target: T1, Protein deacetylase HDAC6 (Homo sapiens, UniProt Q9UBN7); experiment: Inhibition of HDAC6 (unknown origin) using Ac-Leu-GlyLys(Ac)-AMC as substrate preincubated for 5 mins followed by substrate addition measured after 30 mins by fluorescence assay
T1 sequence (Q9UBN7 whole entry): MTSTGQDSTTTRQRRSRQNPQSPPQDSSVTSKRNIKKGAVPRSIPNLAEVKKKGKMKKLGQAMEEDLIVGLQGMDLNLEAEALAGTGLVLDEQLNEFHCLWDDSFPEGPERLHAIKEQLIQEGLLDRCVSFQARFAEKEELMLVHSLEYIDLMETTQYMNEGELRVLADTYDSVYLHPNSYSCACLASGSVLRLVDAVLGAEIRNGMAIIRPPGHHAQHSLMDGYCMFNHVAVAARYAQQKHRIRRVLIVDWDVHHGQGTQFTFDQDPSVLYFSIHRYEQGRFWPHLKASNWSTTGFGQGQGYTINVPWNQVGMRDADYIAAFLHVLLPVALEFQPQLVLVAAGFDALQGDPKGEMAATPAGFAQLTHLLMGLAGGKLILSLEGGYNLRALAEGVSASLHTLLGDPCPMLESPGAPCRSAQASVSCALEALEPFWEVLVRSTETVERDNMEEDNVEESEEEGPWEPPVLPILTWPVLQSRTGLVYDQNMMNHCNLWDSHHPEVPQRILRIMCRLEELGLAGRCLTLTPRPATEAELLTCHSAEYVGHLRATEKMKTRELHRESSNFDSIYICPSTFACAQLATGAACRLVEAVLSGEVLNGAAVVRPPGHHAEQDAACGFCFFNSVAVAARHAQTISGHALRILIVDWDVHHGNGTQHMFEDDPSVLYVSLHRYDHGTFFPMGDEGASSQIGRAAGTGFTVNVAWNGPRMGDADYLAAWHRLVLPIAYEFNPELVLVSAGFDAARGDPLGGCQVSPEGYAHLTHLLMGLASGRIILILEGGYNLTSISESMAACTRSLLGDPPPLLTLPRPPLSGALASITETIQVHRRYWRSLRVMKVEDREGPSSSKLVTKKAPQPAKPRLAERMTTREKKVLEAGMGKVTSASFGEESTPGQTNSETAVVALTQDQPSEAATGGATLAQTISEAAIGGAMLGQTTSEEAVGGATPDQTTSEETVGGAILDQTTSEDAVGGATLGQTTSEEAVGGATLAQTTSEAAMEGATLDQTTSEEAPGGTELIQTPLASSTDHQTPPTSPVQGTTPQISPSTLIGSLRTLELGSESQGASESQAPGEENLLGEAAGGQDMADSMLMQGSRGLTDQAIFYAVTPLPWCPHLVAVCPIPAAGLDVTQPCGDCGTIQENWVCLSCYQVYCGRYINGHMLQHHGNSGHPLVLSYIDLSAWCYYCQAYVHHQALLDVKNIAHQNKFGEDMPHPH

Chain of Histone deacetylase 1 (Q13547 whole entry): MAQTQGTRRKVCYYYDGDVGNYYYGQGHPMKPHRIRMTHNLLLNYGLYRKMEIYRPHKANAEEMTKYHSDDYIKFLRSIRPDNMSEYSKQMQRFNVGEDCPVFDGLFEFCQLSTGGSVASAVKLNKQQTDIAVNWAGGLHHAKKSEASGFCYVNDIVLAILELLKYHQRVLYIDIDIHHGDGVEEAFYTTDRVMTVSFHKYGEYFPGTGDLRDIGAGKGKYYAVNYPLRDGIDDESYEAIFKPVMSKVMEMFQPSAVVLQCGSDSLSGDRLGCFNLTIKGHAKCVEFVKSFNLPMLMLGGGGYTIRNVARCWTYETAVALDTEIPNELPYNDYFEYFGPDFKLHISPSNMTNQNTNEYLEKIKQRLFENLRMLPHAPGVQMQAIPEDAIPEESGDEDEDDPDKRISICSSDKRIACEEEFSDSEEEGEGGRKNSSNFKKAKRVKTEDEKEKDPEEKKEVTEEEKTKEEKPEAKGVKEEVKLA
Chain of Histone deacetylase 2 (Q92769 whole entry): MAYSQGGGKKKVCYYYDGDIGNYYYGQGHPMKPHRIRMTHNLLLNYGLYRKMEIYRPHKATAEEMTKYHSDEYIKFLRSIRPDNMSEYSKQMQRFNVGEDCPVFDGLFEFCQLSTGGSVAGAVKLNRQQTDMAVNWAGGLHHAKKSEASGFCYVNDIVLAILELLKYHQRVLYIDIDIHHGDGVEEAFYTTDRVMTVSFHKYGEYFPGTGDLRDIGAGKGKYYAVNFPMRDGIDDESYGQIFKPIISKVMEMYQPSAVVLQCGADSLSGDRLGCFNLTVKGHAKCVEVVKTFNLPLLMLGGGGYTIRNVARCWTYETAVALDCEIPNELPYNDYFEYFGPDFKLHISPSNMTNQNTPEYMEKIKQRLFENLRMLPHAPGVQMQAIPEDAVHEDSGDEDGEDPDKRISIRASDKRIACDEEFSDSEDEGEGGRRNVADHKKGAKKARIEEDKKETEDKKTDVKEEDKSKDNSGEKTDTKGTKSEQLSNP
Chain of Histone deacetylase 3 (O15379 whole entry): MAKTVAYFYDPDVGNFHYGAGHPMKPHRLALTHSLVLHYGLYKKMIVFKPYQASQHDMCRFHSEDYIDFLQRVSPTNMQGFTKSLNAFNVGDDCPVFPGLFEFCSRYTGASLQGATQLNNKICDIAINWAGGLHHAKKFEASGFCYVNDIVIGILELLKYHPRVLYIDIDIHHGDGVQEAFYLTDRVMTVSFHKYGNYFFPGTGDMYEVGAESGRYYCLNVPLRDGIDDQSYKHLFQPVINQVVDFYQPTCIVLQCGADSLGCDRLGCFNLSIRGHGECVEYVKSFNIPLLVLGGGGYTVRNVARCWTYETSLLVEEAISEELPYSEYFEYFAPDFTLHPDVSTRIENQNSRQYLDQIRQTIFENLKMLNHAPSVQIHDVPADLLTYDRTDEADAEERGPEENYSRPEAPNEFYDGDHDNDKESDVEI

Structure (SMILES) | IC50 [1] [nM] | also measured
COc1cc(/C=C/C(=O)NO)ccc1OC[C@H](Cc1c[nH]c2ccccc12)NC(=O)c1ccc(F)cc1 | 48.6 | 
COc1cc(/C=C/C(=O)NO)ccc1OC[C@H](Cc1c[nH]c2ccccc12)NC(=O)c1ccccc1[N+](=O)[O-] | 75.7 | 
COc1cc(/C=C/C(=O)NO)ccc1OC[C@H](Cc1c[nH]c2ccccc12)NC(=O)c1cccc(C)c1 | 24.2 | 
COc1cc(/C=C/C(=O)NO)ccc1OC[C@H](Cc1c[nH]c2ccccc12)NC(=O)c1ccccc1F | 76.5 | 
COc1cc(/C=C/C(=O)NO)ccc1OC[C@H](Cc1c[nH]c2ccccc12)NC(=O)c1ccc(Cl)cc1Cl | 95 | 
COc1cc(/C=C/C(=O)NO)ccc1OC[C@H](Cc1c[nH]c2ccccc12)NC(=O)c1ccc(NC(C)=O)cc1O | 47.1 | 
COc1cc(/C=C/C(=O)NO)ccc1OC[C@H](Cc1c[nH]c2ccccc12)NC(=O)c1ccc([N+](=O)[O-])cc1 | 60.7 | 
COc1cc(/C=C/C(=O)NO)ccc1OC[C@H](Cc1c[nH]c2ccccc12)NC(=O)CCCc1ccccc1 | 42.4 | 
COc1cc(/C=C/C(=O)NO)ccc1OC[C@H](Cc1c[nH]c2ccccc12)NC(=O)c1ccccc1C | 102 | 
COc1cc(/C=C/C(=O)NO)ccc1OC[C@H](Cc1c[nH]c2ccccc12)NC(=O)c1cccc(F)c1 | 60 | 
COc1cc(/C=C/C(=O)NO)ccc1OC[C@H](Cc1c[nH]c2ccccc12)NC(=O)c1ccccc1Br | 62.2 | 
COc1cc(/C=C/C(=O)NO)ccc1OC[C@H](Cc1c[nH]c2ccccc12)NC(=O)Cc1ccccc1 | 54.8 | 
COc1cc(/C=C/C(=O)NO)ccc1OC[C@H](Cc1c[nH]c2ccccc12)NC(=O)c1ccccc1OC | 60 | 
COc1cc(/C=C/C(=O)NO)ccc1OC[C@H](Cc1c[nH]c2ccccc12)NC(=O)c1ccc(Cl)cc1 | 23.3 | 
COc1cc(/C=C/C(=O)NO)ccc1OC[C@H](Cc1c[nH]c2ccccc12)NC(=O)c1cccc([N+](=O)[O-])c1 | 34.4 | 
COc1cc(/C=C/C(=O)NO)ccc1OC[C@H](Cc1c[nH]c2ccccc12)NC(=O)c1ccc(Br)cc1Cl | 114 | 

The next compounds have a lower IC50 [1] than those just listed; values first:

IC50 [1] [nM] | Structure (SMILES) | also measured
22.5 | COc1cc(/C=C/C(=O)NO)ccc1OC[C@H](Cc1c[nH]c2ccccc12)NC(=O)c1ccccc1Cl | 
21.7 | COc1cc(/C=C/C(=O)NO)ccc1OC[C@H](Cc1c[nH]c2ccccc12)NC(=O)CCc1ccccc1 | 
19.5 | COc1cc(/C=C/C(=O)NO)ccc1OC[C@H](Cc1c[nH]c2ccccc12)NC(=O)c1cccc(Br)c1 | 
15.8 | COc1cc(/C=C/C(=O)NO)ccc1OC[C@H](Cc1c[nH]c2ccccc12)NC(=O)c1ccccc1 | 
14.4 | COc1cc(/C=C/C(=O)NO)ccc1OC[C@H](Cc1c[nH]c2ccccc12)NC(=O)c1cccc(Cl)c1 | IC50 (MOLT-4): 60 nM; IC50 (HEL): 130 nM; IC50 (K562): 280 nM; IC50 (HeLa): 430 nM; IC50 (PC-3): 1000 nM
14.1 | COc1cccc(C(=O)N[C@H](COc2ccc(/C=C/C(=O)NO)cc2OC)Cc2c[nH]c3ccccc23)c1 | 
12.1 | COc1cc(/C=C/C(=O)NO)ccc1OC[C@H](Cc1c[nH]c2ccccc12)NC(=O)c1ccc(Br)cc1 | IC50 (MOLT-4): 60 nM; IC50 (HEL): 210 nM; IC50 (K562): 510 nM; IC50 (HeLa): 580 nM; IC50 (PC-3): 1250 nM
9.6 | COc1ccc(C(=O)N[C@H](COc2ccc(/C=C/C(=O)NO)cc2OC)Cc2c[nH]c3ccccc23)cc1 | IC50 (Histone deacetylase 1): 17.5 nM; IC50 (Histone deacetylase 2): 59.5 nM; IC50 (Histone deacetylase 3): 7.1 nM; IC50 [2]: 87 nM; IC50 (MOLT-4): 60 nM; IC50 (HEL): 130 nM; IC50 (K562): 280 nM; IC50 (HeLa): 430 nM; IC50 (PC-3): 1000 nM
8.1 | COc1cc(/C=C/C(=O)NO)ccc1OC[C@H](Cc1c[nH]c2ccccc12)NC(=O)c1ccc(C)cc1 | IC50 (MOLT-4): 40 nM; IC50 (HEL): 150 nM; IC50 (K562): 320 nM; IC50 (HeLa): 310 nM; IC50 (PC-3): 1090 nM
